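Values below derive from 48-hour exposures of cells grown in 96-well plates, with endpoints linearly interpolated between the two concentrations bracketing the appropriate inhibition level. At the GI50, growth is halved.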 Active and inactive are the calls of the source. No stated cut-off is given here; in the data, active = GI50 up to about 1.1 µM and inactive = higher.
What was measured:
Test in all cases: NCI tumour cell line growth inhibition, 48 h
KM12 = system: KM12
M19-MEL = system: M19-MEL
SW-620 = system: SW-620
EKVX = system: EKVX
HCC 2998 = system: HCC 2998
DLD-1 = system: DLD-1
RXF 393 = system: RXF 393
Malme-3M = system: Malme-3M
NCI-H226 = system: NCI-H226
HOP-92 = system: HOP-92
SNB-78 = system: SNB-78
786-0 = system: 786-0
HT-29 = system: HT-29
NCI-H460 = system: NCI-H460
U-251 = system: U-251
MOLT-4 = system: MOLT-4
SF-268 = system: SF-268
OVCAR-4 = system: OVCAR-4
OVCAR-8 = system: OVCAR-8
NCI-H522 = system: NCI-H522
UACC-257 = system: UACC-257
LXFL 529 = system: LXFL 529
SN12C = system: SN12C
A498 = system: A498
RPMI-8226 = system: RPMI-8226
UACC-62 = system: UACC-62
SK-MEL-2 = system: SK-MEL-2
DMS-273 = system: DMS-273
OVCAR-3 = system: OVCAR-3
SK-MEL-5 = system: SK-MEL-5
HOP-18 = system: HOP-18
LOX IMVI = system: LOX IMVI
SF-295 = system: SF-295
ACHN = system: ACHN
IGROV-1 = system: IGROV-1
COLO 205 = system: COLO 205
SNB-19 = system: SNB-19
HCT-15 = system: HCT-15
NCI-H23 = system: NCI-H23
TK-10 = system: TK-10
SNB-75 = system: SNB-75
HOP-62 = system: HOP-62
OVCAR-5 = system: OVCAR-5
HCT-116 = system: HCT-116
SK-OV-3 = system: SK-OV-3
KM-20L2 = system: KM-20L2
SF-539 = system: SF-539
HL-60 = system: HL-60
A549 = system: A549
M14 = system: M14
DMS-114 = system: DMS-114
CAKI-1 = system: CAKI-1
UO-31 = system: UO-31
CCRF-CEM = system: CCRF-CEM
K562 = system: K562
SK-MEL-28 = system: SK-MEL-28
SR = system: SR
XF498 = system: XF498

## CCc1nc2ccccc2c(=O)n1/N=C(\N=N\c1ccc(Cl)cc1)c1ccccc1
KM12
  GI50: 18.2 µM (inactive)
M19-MEL
  GI50: 41.8 µM (inactive)
SW-620
  GI50: 31.3 µM (inactive)
EKVX
  GI50: 26.1 µM (inactive)
HCC 2998
  GI50: 29.2 µM (inactive)
DLD-1
  GI50: 37.2 µM (inactive)
RXF 393
  GI50: 14.2 µM (inactive)
Malme-3M
  GI50: 38.6 µM (inactive)
NCI-H226
  GI50: 21.8 µM (inactive)
HOP-92
  GI50: 13.9 µM (inactive)
SNB-78
  GI50: 27.1 µM (inactive)
786-0
  GI50: 23.1 µM (inactive)
HT-29
  GI50: 15.7 µM (inactive)
NCI-H460
  GI50: 27.4 µM (inactive)
U-251
  GI50: 26.9 µM (inactive)
MOLT-4
  GI50: 28.1 µM (inactive)
SF-268
  GI50: 17.3 µM (inactive)
OVCAR-4
  GI50: 23.5 µM (inactive)
OVCAR-8
  GI50: 35.2 µM (inactive)
NCI-H522
  GI50: 20.1 µM (inactive)
UACC-257
  GI50: 13.2 µM (inactive)
LXFL 529
  GI50: 19.1 µM (inactive)
SN12C
  GI50: 36 µM (inactive)
A498
  GI50: 26.7 µM (inactive)
RPMI-8226
  GI50: 30.7 µM (inactive)
UACC-62
  GI50: 30.8 µM (inactive)
SK-MEL-2
  GI50: 32.7 µM (inactive)
DMS-273
  GI50: 20.7 µM (inactive)
OVCAR-3
  GI50: 20.7 µM (inactive)
SK-MEL-5
  GI50: 18.4 µM (inactive)
HOP-18
  GI50: 12.5 µM (inactive)
LOX IMVI
  GI50: 16.9 µM (inactive)
SF-295
  GI50: 25 µM (inactive)
ACHN
  GI50: 31.8 µM (inactive)
IGROV-1
  GI50: 34 µM (inactive)
COLO 205
  GI50: 31.3 µM (inactive)
SNB-19
  GI50: 23.4 µM (inactive)
HCT-15
  GI50: 39.6 µM
NCI-H23
  GI50: > 100 µM (inactive)
TK-10
  GI50: 31 µM (inactive)
SNB-75
  GI50: 14.6 µM (inactive)
HOP-62
  GI50: 24.3 µM (inactive)
OVCAR-5
  GI50: > 100 µM (inactive)
HCT-116
  GI50: 17.3 µM (inactive)
SK-OV-3
  GI50: 23.7 µM (inactive)
KM-20L2
  GI50: 14 µM (inactive)
SF-539
  GI50: 22.5 µM (inactive)
HL-60
  GI50: 42.4 µM (inactive)
A549
  GI50: 23.3 µM (inactive)
M14
  GI50: 34.2 µM (inactive)
DMS-114
  GI50: 18.7 µM (inactive)
CAKI-1
  GI50: 17 µM (inactive)
UO-31
  GI50: 19.5 µM (inactive)
CCRF-CEM
  GI50: 65.8 µM (inactive)
K562
  GI50: > 10 µM (inactive)
SK-MEL-28
  GI50: 32 µM (inactive)

## CCN1CCC(O)(c2ccc(Cl)cc2)C(C(=O)c2ccc(Cl)cc2)C1 (stereo not drawn)
KM12
  GI50: > 100 µM (inactive)
M19-MEL
  GI50: > 100 µM (inactive)
SW-620
  GI50: 70.3 µM (inactive)
EKVX
  GI50: > 100 µM (inactive)
HCC 2998
  GI50: > 100 µM (inactive)
DLD-1
  GI50: > 100 µM (inactive)
RXF 393
  GI50: > 100 µM (inactive)
HOP-92
  GI50: > 100 µM (inactive)
SNB-78
  GI50: > 100 µM (inactive)
SR
  GI50: 36.6 µM (inactive)
786-0
  GI50: > 100 µM (inactive)
HT-29
  GI50: > 100 µM (inactive)
NCI-H460
  GI50: > 100 µM (inactive)
U-251
  GI50: > 100 µM (inactive)
MOLT-4
  GI50: > 100 µM (inactive)
SF-268
  GI50: > 100 µM (inactive)
OVCAR-4
  GI50: > 100 µM (inactive)
XF498
  GI50: > 100 µM (inactive)
OVCAR-8
  GI50: > 100 µM (inactive)
NCI-H522
  GI50: 20.4 µM (inactive)
UACC-257
  GI50: > 100 µM (inactive)
LXFL 529
  GI50: > 100 µM (inactive)
SN12C
  GI50: > 100 µM (inactive)
A498
  GI50: > 100 µM (inactive)
RPMI-8226
  GI50: 24.4 µM (inactive)
UACC-62
  GI50: > 100 µM (inactive)
SK-MEL-2
  GI50: > 100 µM (inactive)
DMS-273
  GI50: > 100 µM (inactive)
OVCAR-3
  GI50: > 100 µM (inactive)
SK-MEL-5
  GI50: > 100 µM (inactive)
HOP-18
  GI50: 22.6 µM (inactive)
LOX IMVI
  GI50: > 100 µM (inactive)
SF-295
  GI50: > 100 µM (inactive)
ACHN
  GI50: > 100 µM (inactive)
IGROV-1
  GI50: > 100 µM (inactive)
COLO 205
  GI50: > 100 µM (inactive)
SNB-19
  GI50: > 100 µM (inactive)
NCI-H23
  GI50: > 100 µM (inactive)
TK-10
  GI50: > 100 µM (inactive)
SNB-75
  GI50: 42 µM (inactive)
OVCAR-5
  GI50: > 100 µM (inactive)
HCT-116
  GI50: > 100 µM (inactive)
SK-OV-3
  GI50: > 100 µM (inactive)
KM-20L2
  GI50: > 100 µM (inactive)
SF-539
  GI50: 26.2 µM (inactive)
HL-60
  GI50: > 100 µM (inactive)
A549
  GI50: > 100 µM (inactive)
M14
  GI50: > 100 µM (inactive)
UO-31
  GI50: 35.2 µM (inactive)
CCRF-CEM
  GI50: 49.5 µM (inactive)
K562
  GI50: > 100 µM (inactive)
SK-MEL-28
  GI50: > 100 µM (inactive)
